In patent US20240238272A1, “TREATMENT OF ANTIPHOSPHOLIPID SYNDROME USING S-HYDROXYCHLOROQUINE” (Genovate Biotechnology Co. Ltd., priority 2021, published 2024):
Each block holds one compound with its values, some of them ahead of it.

Tests used:
[1] = test system: thrombosis induced by anti-β2GP1 antibody; test: APS-related thrombosis mice model, femoral vein pinch, clot formation; assay type: in vivo, C57BL/6 male mice
Protocol: C57BL/6 male mice at ages of 8-12 weeks (purchased from BioLasco, Taiwan) were used in this study. All procedures were approved by the Institutional Animal Care Committee of Taipei Medical University. Venous thrombosis was induced in mice using an endothelial injury model. […] They were anesthetized 72 hours after the injection. The right femoral vein was exposed and pinched with a pressure of 1500 g/mm^2 to induce formation of a thrombus. […] As such, the anti-β2GP1 antibody was injected to a mouse at 100 AU for all studies below. Following the procedure described above, a mouse (i.e., HCQ-treated mouse) was injected with 100 AU of the anti-β2GP1 antibody from Patient 5 and 2000 μg racemic-HCQ (200 μl at 10 mg/ml). As a control, a group of mice (n=4; APS-induced mice) were injected with only 100 AU of the anti-β2GP1 antibody. After 72 hours, the right femoral vein of each mouse was exposed and pinched with a pressure of 1500 g/mm^2 to induce formation of a thrombus. Thrombosis time (in minute) was recorded. […] Clots were removed from the femoral vein after pinch for 5 minutes.

[2] = test system: annexin V on THP-1 cell surfaces; test: Restoration of annexin A5 anticoagulant shield on THP-1 cells treated with anti-β2-GP1 IgG; assay type: cell-based, human; conditions: 0.5 μg/mL HCQ; comparative sample without HCQ = 1
Protocol: THP-1 cells were first maintained in a RPMI1640 medium (Thermo Fisher Scientific, Waltham, Massachusetts) containing 10% fetal bovine serum, 2 mM L-glutamine, and 50 U/mL penicillin-streptomycin antibiotics. They were then seeded at a density of 8×10^4 cells/well in a 96-well culture plate and were allowed to reach confluence. Subsequently, THP-1 cells were treated with anti-β2-GP1 IgG in the presence of 0.5 μg/mL HCQ. Levels of annexin V on cell surfaces were determined by optical absorbance after the IgG-treated THP-1 cells were rinsed with HBS-CaCl2) solution to remove free annexin V, leaving only annexin V that is attached to the cell surface.
Three samples were prepared each with one of three HCQ (i.e., S-HCQ, R-HCQ, and racemic HCQ) solutions. A comparative sample was obtained following the same procedure described above except that HCQ was not added. A patient serum containing β2-GP1 antibody was used as a control sample.

[3] = biological target: T1, β2-GP1 and antibody binding (Homo sapiens, UniProt P02749); test: Dot blot assay of β2-GP1 and antibody binding, THP-1 total lysate; conditions: 10 mg/mL, mean ± S.E.M., triplicate
T1 construct: THP-1 is a human peripheral blood monocyte that highly expresses β2-GP1; endogenous in cells; host or cells: THP-1 (human monocyte cell line): total lysate in the dot blot, whole cells in the ELISA
T1 sequence (P02749 20-345): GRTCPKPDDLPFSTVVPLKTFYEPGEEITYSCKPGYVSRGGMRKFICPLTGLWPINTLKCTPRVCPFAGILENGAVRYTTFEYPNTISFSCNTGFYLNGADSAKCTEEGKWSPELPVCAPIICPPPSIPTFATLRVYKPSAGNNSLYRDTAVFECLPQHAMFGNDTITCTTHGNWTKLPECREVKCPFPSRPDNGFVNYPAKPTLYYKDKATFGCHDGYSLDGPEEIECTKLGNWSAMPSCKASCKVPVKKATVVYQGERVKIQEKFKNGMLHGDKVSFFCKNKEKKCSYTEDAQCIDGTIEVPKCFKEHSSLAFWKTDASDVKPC
Protocol: THP-1 is a human peripheral blood monocyte that highly expresses β2-GP1 and is associated with increased APS in patients. Before treating with HCQ, THP-1 cells were fixed in a 3.7% paraformaldehyde solution, blocked in a phosphate-buffered saline (PBS) containing 1% bovine serum albumin (BSA), and incubated with a mouse aPL antibody (A500-006A, Bethyl Laboratories, Montgomery, Texas). Cellular immunofluorescent staining was used to determine β2-GP1 expression.
Separate samples were prepared for a dot blot assay as follows: a THP-1 total lysate was loaded to a polyvinylidene difluoride membrane, blocked with PBS containing 1% BSA, and incubated with mouse anti-β2-GP1 A500-006A, together with S-HCQ, R-HCQ, or racemic HCQ, each at a concentration of 10 mg/mL. A control sample was obtained following the same procedure described above except that no HCQ was added.
(§1) All assays above were performed in triplicate. Reported results are expressed as means±S.E.M. All statistical analyses were performed using a software under the trademark of GraphPad Prism® (Version 8.0. GraphPad Software Inc, San Diego, California). For comparisons between two groups, student's test was used. A p-value<0.05 was considered statistically significant.

E-selectin = test: APS-related thrombosis mice model, serum expression level of E-selectin; assay type: in vivo; conditions: for Inhibition (E-selectin): relative to comparative group; for Thrombosis (E-selectin): serum expression level relative to comparative group
Protocol: (§2) Venous thrombosis was induced in mice using an endothelial injury model. Mice were intravenously (IV) injected 7.5% FeCl3 (positive control), saline (negative control), or an APS-derived anti-β2GP1 antibody (from Patient 2) at a dosage of 100, 200, or 300 AU (test group). They were anesthetized 72 hours after the injection. The right femoral vein was exposed and pinched with a pressure of 1500 g/mm^2 to induce formation of a thrombus.
(§3) Based on the APS animal model described above, R-HCQ and S-HCQ were administered to mice for reducing thrombosis. Mice were divided into 6 groups, each of which was injected with (1) IgG as a control group, (2) 100 AU of the anti-β2GPI antibody as a comparative group, (3) a combination of 100 AU of the anti-B2GPI antibody and 300 μg of S-HCQ as treatment group 3, (4) a combination of 100 AU of the anti-B2GPI antibody and 200 μg of S-HCQ as treatment group 4, (5) a combination of 100 AU of the anti-B2GPI antibody and 200 μg of R-HCQ as treatment group 5, or (6) a combination of 100 AU of the anti-β2GP1 antibody and 100 μg of R-HCQ as treatment group 6.
(§4) Serum expression levels of E-selectin and VCAM-1, two biomarkers of APS-related thrombosis, were measured. Percentages of inhibition in treatment groups 3-6 were calculated based on the expression levels of E-selectin and VCAM-1 relative to the comparative group. A low expression level of E-selectin or VCAM-1 indicates high inhibition of thrombosis.

[4] = test system: APS-related thrombosis (E-selectin and VCAM-1); test: APS-related thrombosis mice model, average of E-selectin and VCAM-1; assay type: in vivo
Protocol: as §2, §3, §4

VCAM-1 = test: APS-related thrombosis mice model, serum expression level of VCAM-1; assay type: in vivo; conditions: for Inhibition (VCAM-1): relative to comparative group; for Thrombosis (VCAM-1): serum expression level relative to comparative group
Protocol: as §2, §3, §4

[5] = biological target: T2, β2-GP1 and antibody binding (THP-1 cells) (Homo sapiens, UniProt P02749); test: ELISA assay of β2-GP1-antibody binding to THP-1 membrane; assay type: cell-based
T2 construct: THP-1 is a human peripheral blood monocyte that highly expresses β2-GP1; endogenous in cells; host or cells: THP-1 (human monocyte cell line): total lysate in the dot blot, whole cells in the ELISA
T2 sequence (P02749 20-345): T1 sequence (P02749 20-345)
Protocol: Subsequently, an ELISA assay was performed to determine whether S-HCQ or R-HCQ inhibiting binding of β2-GP1-antibody complexes to the THP-1 membrane. THP-1 cells thus treated were resuspended to a density of 3.6×10^5 cells/mL in a medium containing 80% RPMI-1640 (Thermo Fisher Scientific, Waltham, Massachusetts), 20% anti-β2-GP1 immunoglobulin G (“IgG”) (0.2 mg/mL) in HEPES-buffered saline (HBS, pH 7.45), and S-HCQ. Three samples were each prepared from a medium having a different S-HCQ concentration, i.e., 1 μg/mL, 2.5 μg/mL, or 5 μg/mL. A control sample was obtained following the same procedure described above except that no S-HCQ was added. Optical absorbance was measured at 450 nm.
as §1

- inhibition at 10000 µg/mL [3]: 80%
SMILES: CCN(CCO)CCCC(C)Nc1ccnc2cc(Cl)ccc12 (racemic) [racemic HCQ, Hydroxychloroquine]
- thrombosis time ([1]; 2000 μg with 100 AU anti-β2GP1 antibody, 72 hours after injection, healthy mice 5, APS-induced mice 2): 5 min
- thrombus size ([1]; 2000 μg, clots removed after pinch for 5 minutes, versus mice without HCQ treatment): significantly reduced the thrombus size
- relative level of annexin V [2]: 3.09

- inhibition of β2-GP1 and antibody binding [3]: 23%
SMILES: CCN(CCO)CCC[C@@H](C)Nc1ccnc2cc(Cl)ccc12 [R-HCQ, (R)-(−)-hydroxychloroquine]
- Inhibition (E-selectin) (E-selectin; 100 μg): 25.2%
- Thrombosis (E-selectin) (E-selectin; 100 μg): 74.8%
- Inhibition (E-selectin) (E-selectin; 200 μg): 30%
- Thrombosis (E-selectin) (E-selectin; 200 μg): 70%
- Inhibition Average ([4]; 100 μg): 20.75%
- Thrombosis Average ([4]; 100 μg): 79.25%
- Inhibition Average ([4]; 200 μg): 26.5%
- Thrombosis Average ([4]; 200 μg): 72.5%
- Inhibition (VCAM-1) (VCAM-1; 100 μg): 16.3%
- Thrombosis (VCAM-1) (VCAM-1; 100 μg): 83.7%
- Inhibition (VCAM-1) (VCAM-1; 200 μg): 23%
- Thrombosis (VCAM-1) (VCAM-1; 200 μg): 75%
- relative level of annexin V [2]: 2.54

- inhibition rate of β2-GP1 and antibody binding ([5]; 1 μg/mL): 25%
- inhibition rate of β2-GP1 and antibody binding ([5]; 2.5 μg/mL): 60%
- inhibition rate of β2-GP1 and antibody binding ([5]; 5 μg/mL): 90%
- inhibition of β2-GP1 and antibody binding [3]: 97%
SMILES: CCN(CCO)CCC[C@H](C)Nc1ccnc2cc(Cl)ccc12 [S-HCQ, S-(+)-hydroxychloroquine]
- Inhibition (E-selectin) (E-selectin; 200 μg): 53.8%
- Thrombosis (E-selectin) (E-selectin; 200 μg): 46.2%
- Inhibition (E-selectin) (E-selectin; 300 μg): 59.4%
- Thrombosis (E-selectin) (E-selectin; 300 μg): 40.6%
- Inhibition Average ([4]; 200 μg): 51.4%
- Thrombosis Average ([4]; 200 μg): 48.55%
- Inhibition Average ([4]; 300 μg): 55.7%
- Thrombosis Average ([4]; 300 μg): 44.2%
- Inhibition (VCAM-1) (VCAM-1; 200 μg): 49%
- Thrombosis (VCAM-1) (VCAM-1; 200 μg): 50.9%
- Inhibition (VCAM-1) (VCAM-1; 300 μg): 52%
- Thrombosis (VCAM-1) (VCAM-1; 300 μg): 47.8%
- relative level of annexin V [2]: 3.45
